Consider 22 molecules from patent US20100184802A1, “Bicycloheteroaryl Compounds as P2X7 Modulators and Uses Thereof” (priority 2006, published 2010).

Data set [1] can be described thus: Pharmacokinetic evaluation following intravenous and oral administration in rats. In kind it is in vivo. As to conditions: rat, plasma; male Sprague-Dawley rats; PO 1 to 5 mg/kg vs IV, AUCinf dose-normalized; mean % F. The procedure:
Male Sprague-Dawley rats are acclimatized for at least 24 hours prior to experiment initiation. During the acclimation period, all animals receive food and water ad libitum. However, food but not water is removed from the animals' cages at least 12 hours before initiation of the experiment. During the first 3 hours of experimentation, the animals receive only water ad libitum. At least three animals each are tested for intravenous and oral dosage. For intravenous formulation, compounds were dissolved (0.25 to 1 mg/mL) in a mixture of 3% dimethyl sulfoxide, 40% PEG 400 and the rest percentage of 40% Captisol in water (w/v). The animals are weighed before dosing. The determined body weight is used to calculate the dose volume for each animal.
Dose volume (mL/kg)=1 mg/kg/formulation concentration (mg/mL)
In instances where the formulation concentrations were less than 0.5 mg/mL, the dosing volume is about 2 mL/kg.
For oral formulation, compounds of this invention are suspended (0.5 to 0.75 mg/mL) in a mixture of 5% of 10% Tween 80 in water (v/v) and 95% of 0.5% methyl cellulose in water (w/v). PO rats are typically dosed through oral gavage following the same dose volume formula as IV to achieve a dose level of 1 to 5 mg/kg. For IV dosing, blood samples are collected (using a pre-heparinized syringe) via the jugular vein catheter at 2, 5, 15, 30, 60, 120, 180, 300, 480, and 1440 minutes post dosing. For PO dosing, blood samples are collected (using a pre-heparinized syringe) via the jugular vein catheter before dosing and at 5, 15, 30, 60, 120, 180, 300, 480, and 1440 minutes post dosing. About 250 uL of blood is obtained at each time point from the animal. Equal volumes of 0.9% normal saline are replaced to prevent dehydration. The whole blood samples are maintained on ice until centrifugation. Blood samples are then centrifuged at 14,000 rpm for 10 minutes at 4° C. and the upper plasma layer transferred into a clean vial and stored at −80° C. The resulting plasma samples are then analyzed by liquid chromatography-tandem mass spectrometry. Following the measurement of plasma samples and dosing solutions, plasma concentration-time curve is plotted. Plasma exposure is calculated as the area under the concentration-time curve extrapolated to time infinite (AUCinf). The AUCinf is averaged and the oral bioavailability (% F) for individual animal is calculated as:
AUCinf(PO)/AUCinf(IV), normalized to their respective dose levels.
The % F is reported as the mean % F of all animals dosed orally with the compound of the invention at the specified level (Table 4).

Data set [2] in a line: Half-life in human liver microsomes (HLM). The settings on record: human liver microsomes (HLM, HL101); human liver microsomes 0.78 mg/mL, 1 μM compound, NADPH, pH 7.4, 37° C. In kind it is in vitro ADME. (In general: Microsomes from liver hold many membrane-bound enzymes, among them those of drug oxidation.)
Experimental: Test compounds (1 μM) are incubated with 3.3 mM MgCl2 and 0.78 mg/mL HLM (HL101) in 100 mM potassium phosphate buffer (pH 7.4) at 37° C. on the 96-deep well plate. The reaction mixture is split into two groups, a non-P450 and a P450 group. NADPH is only added to the reaction mixture of the P450 group. An aliquot of samples of P450 group is collected at 0, 10, 30, and 60 min time point, where 0 min time point indicated the time when NADPH is added into the reaction mixture of P450 group. […] Collected aliquots are extracted with acetonitrile solution containing an internal standard. […] The compound concentration in supernatant is measured by LC/MS/MS system.
The half-life value is obtained by plotting the natural logarithm of the peak area ratio of compounds/internal standard versus time. The slope of the line of best fit through the points yields the rate of metabolism (k). This is converted to a half-life value using following equations:
The target in data set [3] is T1, P2X7 receptor (IL-1β release from THP-1 cells) (Homo sapiens, UniProt Q99572).
T1 construct: host or cells: THP-1 cells differentiated with LPS and IFN-γ
T1 sequence (Q99572 1-595): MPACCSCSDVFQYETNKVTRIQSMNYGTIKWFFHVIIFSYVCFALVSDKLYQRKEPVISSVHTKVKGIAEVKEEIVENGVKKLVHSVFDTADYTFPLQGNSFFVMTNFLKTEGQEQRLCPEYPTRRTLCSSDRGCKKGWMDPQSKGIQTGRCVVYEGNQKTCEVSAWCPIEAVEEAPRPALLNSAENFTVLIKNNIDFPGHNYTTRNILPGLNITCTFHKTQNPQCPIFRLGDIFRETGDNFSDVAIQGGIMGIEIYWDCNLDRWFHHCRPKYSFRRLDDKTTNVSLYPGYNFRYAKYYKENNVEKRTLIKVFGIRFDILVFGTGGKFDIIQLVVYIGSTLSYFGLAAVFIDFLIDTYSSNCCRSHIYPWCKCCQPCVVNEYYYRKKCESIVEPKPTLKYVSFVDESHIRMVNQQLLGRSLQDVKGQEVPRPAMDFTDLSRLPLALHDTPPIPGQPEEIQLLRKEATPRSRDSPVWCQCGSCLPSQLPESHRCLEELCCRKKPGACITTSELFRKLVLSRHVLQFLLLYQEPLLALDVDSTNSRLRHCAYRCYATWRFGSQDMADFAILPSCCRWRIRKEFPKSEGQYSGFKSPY
Kind of data set: IL-1β release assay in differentiated THP-1 cells stimulated with BzATP (Example 9). It is filed as cell-based. The settings on record: for inhibition at 0.3 µM: 0.3 μM concentration, BzATP 250 uM, read-out: IL-1β % Inhib. @ 0.3 or 0.1 μM; for IC50: released IL-1β as in Example 9, four parameter logistic fit. On the procedure:
The cells are then pretreated for 30 minutes with the compound of interest at the appropriate concentration in RPMI media containing 100 IU/mL penicillin, 100 ug/mL streptomycin. […] 30 uL of cell supernatant is then collected and IL-1β levels determined via ELISA (R&D systems Cat. #HSLB50) according to manufacturer's recommendations using the Tecan Safire plate reader. Background adjusted IL-1β levels of drug treated and non-treated cells are used to calculate the percent inhibition.
The compounds set forth in Table 1 were tested for activity in a cellular model as described herein. […] Measurements were made and IC50 values, presented in Table 2, below, were determined by fitting the data to a four parameter logistic equation using GraphPad Prism software (GraphPad Software, Inc). The equation may be expressed by the following formula:
Y=Bottom+(Top−Bottom)/(1+10̂((Log EC50−X)*HillSlope))
Where X is the logarithm of concentration, Y is the response and Y starts at Bottom and goes to Top with a sigmoid shape.

The bioavailability is dose-corrected exposure relative to a reference, in per cent. The low end stands for little systemic uptake, the high end for much systemic uptake. The term half-life denotes the time needed for the level to fall by half in the phase considered. For orientation: IC50 means the concentration that gives 50% inhibition. For `CC(C(=O)Nc1cccc2c(=O)n([C@H](C)C(N)=O)ccc12)C1CCCCCC1` (stereo partly drawn) [Compound 600], the bioavailability in data set [1] lay within 0 to 25%. In data set [2], this molecule showed a half-life at 1 μM of 15 min. Moreover, in data set [3], the inhibition at 0.3 µM was more than 76% and the IC50 was 12.2 nM.
Consider `O=C(CC12CC3CC(CC(C3)C1)C2)Nc1cccc2c1CCN(C(CO)CO)C2=O` [Compound 508], for which, in data set [1], the bioavailability lay in the range of 0 to 25%. In data set [2], the half-life at 1 μM was 49.8 min. In addition, in data set [3], the inhibition at 0.3 µM was more than 76% and the IC50 is 0.779 nM.
Regarding `O=C(CC1CCCCCC1)Nc1cccc2c(=O)n(CCO)ccc12` [Compound 544], the bioavailability in data set [1] was 0 to 25%. This molecule also had a half-life at 1 μM in data set [2] of 20.4 min. Moreover, in data set [3], the inhibition at 0.3 µM is more than 76% and the IC50 is 27.8 nM.
`CC(C(N)=O)n1ccc2c(NC(=O)CC34CC5CC(CC(C5)C3)C4)cccc2c1=O` (stereo not drawn) [Compound 530] displayed a bioavailability in data set [1] of 0 to 25%. For the same molecule, in data set [2], the half-life at 1 μM is 34.8 min. Also, in data set [3], the inhibition at 0.3 µM lay in the range of 26 to 50% and the IC50 was determined as 4.37 nM.
Molecule `C[C@H](CO)n1ccc2c(NC(=O)CC34CC5CC(CC(C5)C3)C4)cccc2c1=O` [Compound 522] showed a half-life at 1 μM in data set [2] of 28.8 min. Further, in data set [3], the inhibition at 0.3 µM was more than 76% and the IC50 was 1.81 nM.
Regarding `O=C(CC12CC3CC(CC(C3)C1)C2)Nc1cccc2c(=O)n(CC3CCNCC3)ccc12` [Compound 501], the bioavailability in data set [1] was in the range of 0 to 25%. Further, in data set [2], the half-life at 1 μM was 22.8 min. Also, in data set [3], the inhibition at 0.3 µM is more than 76% and the IC50 was 6.17 nM.
The corresponding values for `C[C@H](C(=O)O)n1ccc2c(NC(=O)CC34CC5CC(CC(C5)C3)C4)cccc2c1=O` [Compound 601] are 0 to 25%, 22.2 min, more than 76% and 9.08 nM.
As to `C[C@@H](C(N)=O)n1ccc2c(NC(=O)CC34CC5CC(CC(C5)C3)C4)cccc2c1=O` [Compound 572, (S)-2-[5-(2-Adamantan-1-yl-acetylamino)-1-oxo-1H-isoquinolin-2-yl]-propionamide], the bioavailability in data set [1] was in the range of 26 to 50%. In data set [2], this molecule had a half-life at 1 μM of 40.8 min. For the same molecule, the IC50 in data set [3] is 1.21 nM.
Take `O=C(CC12CC3CC(CC(C3)C1)C2)Nc1cccc2c(=O)n(C(CO)CO)ccc12` [Compound 507]: the bioavailability in data set [1] lay within 0 to 25%. Further, the half-life at 1 μM in data set [2] was 34.8 min. In data set [3], the inhibition at 0.3 µM was more than 76% and the 50% inhibitory concentration (IC50) amounted to 0.198 nM.
`CC12CC3CC(C)(C1)CC(CC(=O)Nc1cccc4c(=O)n(C(CO)CO)ccc14)(C3)C2` [Compound 519] had a half-life at 1 μM in data set [2] of 42.6 min. For the same molecule, in data set [3], the inhibition at 0.3 µM was more than 76% and the IC50 amounted to 0.11 nM.
As to `C[C@H](C(N)=O)n1ccc2c(NC(=O)CC3CCCCCC3)cccc2c1=O` [Compound 558], the bioavailability in data set [1] was in the range of 0 to 25%. This molecule also showed a half-life at 1 μM in data set [2] of 61.2 min. Also, in data set [3], the inhibition at 0.3 µM was more than 76% and the IC50 amounted to 23.8 nM.
The corresponding values for `C[C@H](C(N)=O)n1ccc2c(NC(=O)CC3(O)CCCCCC3)cccc2c1=O` [Compound 555] are 26 to 50%, 45.6 min, more than 76% and 41.3 nM.
In the case of `O=C(CC12CC3CC(CC(C3)C1)C2)Nc1cccc2c(=O)n(C(CO)Cc3c[nH]cn3)ccc12` (stereo not drawn) [Compound 515], in data set [2], the half-life at 1 μM was 91.2 min. For the same molecule, in data set [3], the inhibition at 0.3 µM was more than 76% and the half-inhibitory concentration (IC50) was 1.3 nM.
For `NC(=O)[C@@H](CO)n1ccc2c(NC(=O)CC34CC5CC(CC(C5)C3)C4)cccc2c1=O` [Compound 599, (R)-2-[5-(2-Adamantan-1-yl-acetylamino)-1-oxo-1H-isoquinolin-2-yl]-3-hydroxy-propionamide], in data set [1], the bioavailability lay in the range of 0 to 25%. For the same molecule, the half-life at 1 μM in data set [2] was 42 min. Moreover, in data set [3], the inhibition at 0.3 µM is more than 76% and the IC50 stood at 1.09 nM.
Regarding `O=C(CC12CC3CC(CC(C3)C1)C2)Nc1cccc2c1CCN(CC1CCNCC1)C2=O` [Compound 512], the half-life at 1 μM in data set [2] was 44.4 min. Further, in data set [3], the inhibition at 0.3 µM was more than 76% and the IC50 worked out at 7.62 nM.
In data set [1], `C[C@H](C(N)=O)n1ccc2c(NC(=O)CC34CC5CC(CC(C5)C3)C4)c(Cl)ccc2c1=O` [Compound 602, (R)-2-[5-(2-Adamantan-1-yl-acetylamino)-6-chloro-1-oxo-1H-isoquinolin-2-yl]-propionamide] yielded a bioavailability of 0 to 25%. In data set [2], this molecule gave a half-life at 1 μM of 45.6 min. In data set [3], the IC50 came out at 0.088 nM.
Molecule `C[C@H](CO)n1ccc2c(NC(=O)CC3CCCCCC3)cccc2c1=O` [Compound 606, 2-Cycloheptyl-N-[2-((R)-2-hydroxy-1-methyl-ethyl)-1-oxo-1,2-dihydro-isoquinolin-5-yl]-acetamide] registered a bioavailability in data set [1] of 0 to 25%. In addition, the half-life at 1 μM in data set [2] is 23.4 min. Also, in data set [3], the inhibition at 0.3 µM is more than 76% and the IC50 was determined as 4.59 nM.
The molecule `C[C@H](CO)N1CCc2c(NC(=O)CC34CC5CC(CC(C5)C3)C4)cccc2C1=O` [Compound 526] gave a bioavailability in data set [1] of 0 to 25%. In data set [2], the half-life at 1 μM was 37.8 min. In addition, in data set [3], the inhibition at 0.3 µM is more than 76% and the IC50 was determined as 1 nM.
On to `O=C(CC1(O)CCCCCC1)Nc1cccc2c(=O)n(CCO)ccc12` [Compound 520], for which, in data set [1], the bioavailability lay in the range of 26 to 50%. The molecule further gave a half-life at 1 μM in data set [2] of 72.6 min. Further, in data set [3], the inhibition at 0.3 µM lay within 51 to 75% and the IC50 is 165 nM.
Turning to `CC12CC3CC(C)(C1)CC(CC(=O)Nc1cccc4c(=O)n(CC5CCNCC5)ccc14)(C3)C2` [Compound 518, 2-(3,5-Dimethyl-adamantan-1-yl)-N-(1-oxo-2-piperidin-4-ylmethyl-1,2-dihydro-isoquinolin-5-yl)-acetamide], the bioavailability in data set [1] was 0 to 25%. For the same molecule, the half-life at 1 μM in data set [2] was 324 min. In data set [3], the inhibition at 0.3 µM is more than 76% and the IC50 was 60.1 nM.
Take `CC(C)[C@H](C(N)=O)n1ccc2c(NC(=O)CC34CC5CC(C)(CC(C)(C5)C3)C4)cccc2c1=O` [Compound 529]: in data set [1], the bioavailability was 0 to 25%. Moreover, the half-life at 1 μM in data set [2] was 39 min. Besides, in data set [3], the inhibition at 0.3 µM lay in the range of 26 to 50% and the IC50 amounted to 4.65 nM.
Molecule `CC(CO)n1ccc2c(NC(=O)CC34CC5CC(CC(C5)C3)C4)cccc2c1=O` (stereo not drawn) [Compound 517, 2-Adamantan-1-yl-N-[2-(2-hydroxy-1-methyl-ethyl)-1-oxo-1,2-dihydro-isoquinolin-5-yl]-acetamide] had a half-life at 1 μM in data set [2] of 26.4 min. For the same molecule, in data set [3], the inhibition at 0.3 µM was more than 76% and the IC50 was determined as 0.33 nM.
